Laboratory results as given in patent publication US5624923A, “Tricyclic diazepine vasopressin antagonists and oxytocin antagonists” (priority 1995, dated 1997).
Where two headings read alike, the source gives them in different places. Each block holds one compound with its values, some of them ahead of it.

Legend:
[1] = target: T1, Rat Kidney Medullary V2 Receptors (Rattus norvegicus, UniProt Q00788); assay: Binding Assay to Rat Kidney Medullary V2 Receptors; settings: rat kidney medulla membranes; read-out: V2 IC50
T1 construct: Medullary tissues from rat kidneys are dissected out; from tissue; host or cells: rat kidney medulla membranes
Procedure, shortened: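 Membranes were prepared from rat kidney medulla and stored in 50.0 mM Tris-HCl pH 7.4 with 0.2% BSA and 0.1 mM PMSF. Radioligand competition ran 120 min at bench temperature, with 1.0 μM unlabeled ligand defining nonspecific binding. Compounds were added in 50% DMSO; filtration, tritium scintillation counting, IC50 from competition analysis.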

Rat Hepatic V1 Receptors = target: T2, Rat Hepatic V1 Receptors (Rattus norvegicus, UniProt P30560); assay: Binding Assay to Rat Hepatic V1 Receptors
T2 construct: Rat liver plasma membranes expressing the vasopressin V1 receptor subtypes; from tissue; host or cells: rat liver plasma membranes

Vasopressin V1 = Vasopressin V1 Antagonist Activity in Conscious Rats (vasopressin vasopressor response); format: in vivo, rat; design: Average Change: unit not given here; settings: 10 mg/kg i.v.; for % Inhibition / Average Change: SHR
Procedure, shortened: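 Conscious rats are restrained supine, and under local 2% procaine a PE 10/20 cannula is passed through the ventral caudal tail artery into the lower abdominal aorta. The caudal vein is cannulated for intravenous dosing. Blood pressure is recorded with a Statham P23Db transducer, and vasopressin injections are repeated after compound dosing. Percent antagonism is calculated against the pre-drug vasopressor response taken as 100%.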

Vasopressin V2 = Vasopressin V2 Antagonist Activity in Conscious Hydrated Rats; format: in vivo, rat; settings: 10 mg/kg orally, AVP 0.4 μg/kg i.p.
Protocol: Vasopressin V2 Antagonist Activity in Conscious Hydrated Rats
Conscious hydrated rats are treated with compounds under study from 0.1 to 100 mg/kg orally or vehicle. Two to four rats are used for each compound. One hour later, arginine vasopressin (AVP, antidiuretic hormore, ADH) dissolved in peanut oil is administered at 0.4 μg/kg intraperitoneally. Two rats in each test would not receive arginine vasopressin but only the vehicle (peanut oil) to serve as water-loading control. Twenty minutes later each rat is given 30 mL/kg of deionized water orally by gavage and is placed individually in a metabolic cage equipped with a funnel and a graduated glass cylinder to collect urine for four hours. Urine volume is measured and osmolality analyzed by use of a Fiske One-Ten osmometer (Fiske Assoc., Norwood, Mass., USA). Urinary sodium, potassium, and chloride are analyzed by use of ion-specific electrodes in a Beckman E3 (Electrolyte 3) Analyzer.

[2] = rat liver membranes; read-out: V1 IC50

T1 sequence (Q00788 whole entry): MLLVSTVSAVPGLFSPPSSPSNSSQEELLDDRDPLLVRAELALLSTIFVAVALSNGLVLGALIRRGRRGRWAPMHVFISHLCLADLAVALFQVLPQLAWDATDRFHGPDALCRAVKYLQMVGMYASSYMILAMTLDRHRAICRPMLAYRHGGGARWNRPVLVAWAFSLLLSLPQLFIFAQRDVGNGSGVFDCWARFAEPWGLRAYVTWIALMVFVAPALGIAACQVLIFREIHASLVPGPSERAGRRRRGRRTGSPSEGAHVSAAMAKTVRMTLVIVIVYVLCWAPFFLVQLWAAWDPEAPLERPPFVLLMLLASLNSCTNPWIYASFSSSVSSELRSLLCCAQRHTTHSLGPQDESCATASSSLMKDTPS
T2 sequence (P30560 whole entry): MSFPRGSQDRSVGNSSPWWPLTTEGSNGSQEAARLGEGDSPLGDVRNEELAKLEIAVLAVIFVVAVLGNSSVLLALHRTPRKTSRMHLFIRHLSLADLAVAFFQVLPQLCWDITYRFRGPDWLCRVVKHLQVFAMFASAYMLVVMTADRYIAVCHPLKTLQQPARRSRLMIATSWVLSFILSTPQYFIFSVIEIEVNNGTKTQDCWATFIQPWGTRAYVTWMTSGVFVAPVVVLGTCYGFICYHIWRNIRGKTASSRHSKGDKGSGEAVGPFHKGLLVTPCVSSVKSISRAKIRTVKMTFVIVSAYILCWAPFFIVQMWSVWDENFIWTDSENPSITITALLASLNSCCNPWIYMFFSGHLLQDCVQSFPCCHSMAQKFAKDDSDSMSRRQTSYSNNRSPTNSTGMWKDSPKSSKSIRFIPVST

- IC50 [1]: 5 nM
- IC50 (Rat Hepatic V1 Receptors; [2]): 31 nM
Structure (SMILES): Cc1cccc(C(=O)Nc2ccc(C(=O)N3Cc4cccn4Cc4ccccc43)cc2)c1C [Example 467, N-[4-(5H-pyrrolo[2,1-c][1,4]benzodiazepin-10(11H)-ylcarbonyl)phenyl]-2,3-dimethylbenzamide]
- Max. % Inhibition (Vasopressin V1): 65%
- Time (of max. % inhibition) (Vasopressin V1): 120 min
- Osmolality (Vasopressin V2): 365 mOsm/kg
- Urine Volume (Vasopressin V2): 18 ml/4 hrs

- IC50 [1]: 53 nM
- IC50 (Rat Hepatic V1 Receptors; [2]): 87 nM
Structure (SMILES): O=C(CC1CCCCC1)Nc1ccc(C(=O)N2Cc3cccn3Cc3ccccc32)cc1 [Example 356, N-[4-(5H-Pyrrolo[2,1-c][1,4]benzodiazepin-10(11)ylcarbonyl)phenyl]-cyclohexylacetamide]
- Osmolality (Vasopressin V2): 1023 mOsm/kg
- Urine Volume (Vasopressin V2): 5.8 ml/4 hrs

- IC50 [1]: 7 nM
- IC50 (Rat Hepatic V1 Receptors; [2]): 12 nM
Structure (SMILES): O=C(Nc1ccc(C(=O)N2Cc3cccn3Cc3ccccc32)cc1)C1CC=CCC1 (centres unmarked) [Example 354, N-[4-(5H-Pyrrolo[2,1-c][1,4]benzodiazepin-10(11)-ylcarbonyl)phenyl]-3-cyclohexenecarboxamide]
- Osmolality (Vasopressin V2): 1010 mOsm/kg
- Urine Volume (Vasopressin V2): 8.8 ml/4 hrs

Structure (SMILES): Cc1ccccc1NC(=O)Nc1ccc(C(=O)N2Cc3cccn3Cc3ccccc32)cc1 [Example 116, 10,11-Dihydro-10-[4-[[[(2-methylphenyl]amino]-carbonl]amino]benzoyl]-5H-pyrrolo[2,1-c]-[1,4]benzodiazepine]
- IC50 [1]: 85 nM
- IC50 (Rat Hepatic V1 Receptors; read-out: V1 IC50; rat liver membranes): 280 nM
- % Inhibition (Vasopressin V1; VAS 0.01 i.u./kg, 30 min): 22%
- Average Change (Vasopressin V1; VAS 0.01 i.u./kg, 30 min): 22.5
- % Inhibition (Vasopressin V1; VAS 0.01 i.u./kg, 60 min): 38%
- Average Change (Vasopressin V1; VAS 0.01 i.u./kg, 60 min): 18
- % Inhibition (Vasopressin V1; VAS 0.01 i.u./kg, 90 min): 34%
- Average Change (Vasopressin V1; VAS 0.01 i.u./kg, 90 min): 19
- % Inhibition (Vasopressin V1; VAS 0.01 i.u./kg, 120 min): 33%
- Average Change (Vasopressin V1; VAS 0.01 i.u./kg, 120 min): 19.5
- % Inhibition (Vasopressin V1; VAS 0.01 i.u./kg, 180 min): 38%
- Average Change (Vasopressin V1; VAS 0.01 i.u./kg, 180 min): 18
- % Inhibition (Vasopressin V1; VAS 0.01 i.u./kg, 240 min): 45%
- Average Change (Vasopressin V1; VAS 0.01 i.u./kg, 240 min): 16
- % Inhibition (Vasopressin V1; VAS 0.01 i.u./kg, 300 min): 24%
- Average Change (Vasopressin V1; VAS 0.01 i.u./kg, 300 min): 22
- % Inhibition (Vasopressin V1; VAS 0.02 i.u./kg, 30 min): 24%
- Average Change (Vasopressin V1; VAS 0.02 i.u./kg, 30 min): 36.5
- % Inhibition (Vasopressin V1; VAS 0.02 i.u./kg, 60 min): 30%
- Average Change (Vasopressin V1; VAS 0.02 i.u./kg, 60 min): 33.5
- % Inhibition (Vasopressin V1; VAS 0.02 i.u./kg, 90 min): 33%
- Average Change (Vasopressin V1; VAS 0.02 i.u./kg, 90 min): 32
- % Inhibition (Vasopressin V1; VAS 0.02 i.u./kg, 120 min): 17%
- Average Change (Vasopressin V1; VAS 0.02 i.u./kg, 120 min): 40
- % Inhibition (Vasopressin V1; VAS 0.02 i.u./kg, 180 min): 17%
- Average Change (Vasopressin V1; VAS 0.02 i.u./kg, 180 min): 40
- % Inhibition (Vasopressin V1; VAS 0.02 i.u./kg, 240 min): 20%
- Average Change (Vasopressin V1; VAS 0.02 i.u./kg, 240 min): 38.5
- % Inhibition (Vasopressin V1; VAS 0.02 i.u./kg, 300 min): 14%
- Average Change (Vasopressin V1; VAS 0.02 i.u./kg, 300 min): 41.5
